PMC3066593, “Liposomal Tumor Targeting in Drug Delivery Utilizing MMP-2- and MMP-9-Binding Ligands” (Journal of Drug Delivery, 2010)
Values belong to the molecule of their own block, whether it stands above or below them. Positions of bridges follow the written chain, without caps; N, C: chain ends. Residues, ends and D or L forms follow the SMILES beside them.

Tests used:
A2780 xenografts = experiment: Therapeutic efficacy (survival) in subcutaneous A2780 xenografts; type: in vivo, NMRI nude mice; conditions: 9 mg/kg i.v.
Description: (§1) Therapeutic efficacy studies were conducted in subcutaneous A2780 xenografts using doxorubicin, administered as either CTT2-SL liposomes or Caelyx. Commercially available nonliposomal (“free”) drug (i.e., doxorubicin) and saline dilution buffer were used as treatment controls. A2780 ovarian cancer cells (5×10^6 in 100 μl PBS) were injected subcutaneously into the posterior flanks of NMRI nude mice (n = 40). Mice received i.v. bolus injections of CTT2-SL liposome, Caelyx, doxorubicin, and buffer. CTT2-SL liposomes were injected when tumor volumes reached 65 mm^3, while administration of Caelyx and doxorubicin to different xenograft mice was offset in time from CTT2-SL liposomes by 3 and 6 days, respectively. Doxorubicin, CTT2-SL liposomes, and Caelyx were injected at doses of 9 mg/kg each. Mouse body weights were monitored throughout the study period.

[1] = Mouse body weight during efficacy study; type: in vivo, NMRI nude mice; conditions: at day 9; 9 mg/kg doxorubicin equivalents at day 0, 3 and 6; mean of 9 mice; weights returned to initial levels one week later
Description: as §1

[2] = Hepatic accumulation of 125I-labelled peptides in normal mice; type: in vivo
Description: Radiolabeling of peptides and all liposomal formulations with iodine-125 (^125I) was performed using the IODOGEN (Pierce, Rockford, IL). The CTT2-PEG3400-DSPE peptide was labeled with ^125I using iodogen as a catalyst. 5 MBq of Na125I (Amersham, Buckinghamshire, England) in 0.5 ml PBS was added to a tube containing 10 μg dried iodogen and 100 μg CTT2-PEG3400-DSPE peptide construct. The mixture was incubated for 20 min at room temperature. The ^125I-bound particle fractions were purified by elution from PD-10 columns. The activity of the peptide was determined in a gamma counter (Cobra II, Packard Instruments).
Following single i.v. tracer doses of purified ^125I-CTT1-peptide (∼40 μg/mouse), ^125I-CTT2-peptide (∼40 μg/mouse), or CTT2-micelles (200 μg/mouse; 200 kBq), the percentage of the injected dose per gram of tissue (%ID/g) values, corrected for radioactive decay to the time of injection, were measured in tumor and major tissues/organs (heart, liver, kidney, lung, muscle, brain, spleen, and tumor) by sacrificing groups of normal mice or mice bearing serous ovarian hindleg xenografts (OV-90) at specified time points.

Compound: COc1cccc2c1C(=O)c1c(O)c3c(c(O)c1C2=O)C[C@@](O)(C(=O)CO)C[C@@H]3O[C@H]1C[C@H](N)[C@H](O)[C@H](C)O1 [Doxorubicin, doxorubicin]
- Day at which live mice with tumor size exceeding 1000 mm^3 were sacrificed (A2780 xenografts): 24 days
- Maximum body weight loss [1]: about 10%

- Liver accumulation of peptide per gram of tissue relative to muscle ([2]; nontumor-bearing normal mice, n = 5, single i.v. tracer dose ~40 μg/mouse, 125I label, compared between CTT1- and CTT2-peptide (Figure 4)): greater liver accumulation
Compound: CC(C)C[C@@H]1NC(=O)[C@H]([C@@H](C)O)NC(=O)[C@H](Cc2ccccc2)NC(=O)CNC(=O)[C@H](Cc2c[nH]c3ccccc23)NC(=O)[C@H](Cc2c[nH]cn2)NC(=O)[C@H]([C@@H](C)O)NC(=O)[C@H]([C@@H](C)O)NC(=O)[C@@H](N)CSSC[C@@H](C(=O)O)NC1=O [CTT1-peptide] (H-CTTHWGFTLC-OH; disulfide 1-10)

- Hepatic clearance ([2]; normal mice, compared with CTT1-peptide): more rapid hepatic clearance
Compound: CC(C)C[C@@H]1NC(=O)[C@H]([C@@H](C)O)NC(=O)[C@H](Cc2ccccc2)NC(=O)CNC(=O)[C@H](Cc2c[nH]c3ccccc23)NC(=O)[C@H](Cc2c[nH]cn2)NC(=O)[C@H]([C@@H](C)O)NC(=O)[C@H]([C@@H](C)O)NC(=O)[C@@H](NC(=O)CNC(=O)[C@H](Cc2c[nH]cn2)NC(=O)[C@H](Cc2ccc(O)cc2)NC(=O)[C@H](CC(N)=O)NC(=O)[C@H](CCC(=O)O)NC(=O)[C@H](CCCNC(=N)N)NC(=O)CN)CSSC[C@@H](C(N)=O)NC1=O [CTT2-peptide] (H-GRENYHGCTTHWGFTLC-NH2; disulfide 8-17)
